The species entered for data set [1] is Canis lupus familiaris. As to the kind of experiment: Antagonist activity at dog CGRP receptor.
For data set [2], the target named is Calcitonin-gene-related peptide receptor; CALCRL/RAMP1 (Rattus norvegicus) (UniProt Q63118+Q9JJ74). Kind of data set: Antagonist activity at rat CGRP receptor. It is filed as protein-complex assay.
Data set [3] in a line: Stability of the compound in pH 5.5 solution at 50 degC assessed as loss of purity after 1 week. To be noted: read-out: Drug degradation. The class given is physicochemical.
Data set [4] has as its target Cytochrome P450 2D6 (Homo sapiens, UniProt P10635). Kind of data set: Inhibition of CYP2D6 (unknown origin). The class given is ADME.
Data set [5] deals with T1, Cytochrome P450 1A2 (Homo sapiens, UniProt P05177).
T1 sequence (P05177 whole entry): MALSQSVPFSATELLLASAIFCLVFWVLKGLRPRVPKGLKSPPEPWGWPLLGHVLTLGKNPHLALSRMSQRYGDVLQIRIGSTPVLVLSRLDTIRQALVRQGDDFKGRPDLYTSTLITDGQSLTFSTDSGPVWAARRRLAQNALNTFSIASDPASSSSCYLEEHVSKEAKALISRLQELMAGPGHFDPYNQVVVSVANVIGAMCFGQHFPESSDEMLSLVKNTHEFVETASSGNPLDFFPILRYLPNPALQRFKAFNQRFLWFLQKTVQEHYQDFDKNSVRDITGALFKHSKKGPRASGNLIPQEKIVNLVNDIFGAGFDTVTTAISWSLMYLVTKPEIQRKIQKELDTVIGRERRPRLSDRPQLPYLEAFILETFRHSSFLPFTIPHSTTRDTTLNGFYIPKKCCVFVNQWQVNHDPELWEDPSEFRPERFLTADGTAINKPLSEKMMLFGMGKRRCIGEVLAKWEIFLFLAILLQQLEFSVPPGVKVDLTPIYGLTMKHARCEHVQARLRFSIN
Kind of data set: Inhibition of CYP1A2 (unknown origin). It is filed as ADME.

A short description of data set [6]: Genotoxicity in Salmonella typhimurium TA100 by mini AMES test. It is filed as toxicity. To be noted: salmonella enterica subsp. enterica serovar typhimurium.
The nature of data set [7]: Genotoxicity in Salmonella typhimurium TA1535 by mini AMES test. The class given is toxicity. To be noted: salmonella enterica subsp. enterica serovar typhimurium.

SMILES strings stand for the structures. Bounds are passed on as bounds.

Chain of Cytochrome P450 2D6 (P10635 whole entry): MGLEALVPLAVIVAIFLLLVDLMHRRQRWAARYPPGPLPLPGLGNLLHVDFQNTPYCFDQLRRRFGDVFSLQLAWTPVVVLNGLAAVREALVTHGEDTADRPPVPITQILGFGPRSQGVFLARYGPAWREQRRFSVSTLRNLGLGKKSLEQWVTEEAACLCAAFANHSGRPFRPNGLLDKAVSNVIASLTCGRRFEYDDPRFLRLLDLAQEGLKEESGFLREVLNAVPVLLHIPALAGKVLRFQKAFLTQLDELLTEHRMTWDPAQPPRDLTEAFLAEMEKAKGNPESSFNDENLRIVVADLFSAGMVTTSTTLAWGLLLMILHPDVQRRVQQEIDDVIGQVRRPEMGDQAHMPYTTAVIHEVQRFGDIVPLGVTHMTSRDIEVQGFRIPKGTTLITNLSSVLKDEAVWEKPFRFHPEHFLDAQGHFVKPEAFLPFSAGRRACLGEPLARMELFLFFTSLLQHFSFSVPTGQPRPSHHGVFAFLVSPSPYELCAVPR

As to `Cc1cc(C[C@@H](NC(=O)N2CCC3(CC2)OC(=O)Nc2ncccc23)C(=O)N[C@@H](CC2CCNCC2)C(=O)N2CCN(c3ccncc3)CC2)cc2cn[nH]c12` [HTL-0022562], the results for the negative logarithm of the Kb (pKb) in data set [1] and in data set [2] were 7.2 and less than 7, respectively. Also, the degraded at 168 h in data set [3] is 0.8%. For the same compound, the IC50 in data set [4] and in data set [5] was more than 50.1 µM throughout. Further, the Activity result in data set [6] and in data set [7] was “Non-Toxic” throughout.

(Values after ChEMBL document CHEMBL4610123, “Structure-Based Drug Discovery of N-((R)-3-(7-Methyl-1H-indazol-5-yl)-1-oxo-1-(((S)-1-oxo-3-(piperidin-4-yl)-1-(4-(pyridin-4-yl)piperazin-1-yl)propan-2-yl)amino)propan-2-yl)-2'-oxo-1',2'-dihydrospiro[piperidine-4,4'-pyrido[2,3-d][1,3]oxazine]-1-carboxamide (HTL22562): A Calcitonin Gene-Related …” (J Med Chem, 2020).)
